Reference: paper doi:10.1101/2020.06.11.145995v1 (biorxiv, 2020)
Read-outs that look alike come from different tables or passages of the source.

What was measured:
Experiment in all cases: biochemical
[1] = biological target: ABL1(Q252H)-phosphorylated (Homo sapiens, UniProt P00519, Q252H)
[2] = biological target: ABL1-nonphosphorylated (Homo sapiens, UniProt P00519)
[3] = biological target: JAK2(JH1domain-catalytic) (Homo sapiens, UniProt O60674)
[4] = biological target: PRKD3 (Homo sapiens, UniProt O94806)
[5] = biological target: STK36 (Homo sapiens, UniProt Q9NRP7)
STK36, sequence (Q9NRP7 whole entry): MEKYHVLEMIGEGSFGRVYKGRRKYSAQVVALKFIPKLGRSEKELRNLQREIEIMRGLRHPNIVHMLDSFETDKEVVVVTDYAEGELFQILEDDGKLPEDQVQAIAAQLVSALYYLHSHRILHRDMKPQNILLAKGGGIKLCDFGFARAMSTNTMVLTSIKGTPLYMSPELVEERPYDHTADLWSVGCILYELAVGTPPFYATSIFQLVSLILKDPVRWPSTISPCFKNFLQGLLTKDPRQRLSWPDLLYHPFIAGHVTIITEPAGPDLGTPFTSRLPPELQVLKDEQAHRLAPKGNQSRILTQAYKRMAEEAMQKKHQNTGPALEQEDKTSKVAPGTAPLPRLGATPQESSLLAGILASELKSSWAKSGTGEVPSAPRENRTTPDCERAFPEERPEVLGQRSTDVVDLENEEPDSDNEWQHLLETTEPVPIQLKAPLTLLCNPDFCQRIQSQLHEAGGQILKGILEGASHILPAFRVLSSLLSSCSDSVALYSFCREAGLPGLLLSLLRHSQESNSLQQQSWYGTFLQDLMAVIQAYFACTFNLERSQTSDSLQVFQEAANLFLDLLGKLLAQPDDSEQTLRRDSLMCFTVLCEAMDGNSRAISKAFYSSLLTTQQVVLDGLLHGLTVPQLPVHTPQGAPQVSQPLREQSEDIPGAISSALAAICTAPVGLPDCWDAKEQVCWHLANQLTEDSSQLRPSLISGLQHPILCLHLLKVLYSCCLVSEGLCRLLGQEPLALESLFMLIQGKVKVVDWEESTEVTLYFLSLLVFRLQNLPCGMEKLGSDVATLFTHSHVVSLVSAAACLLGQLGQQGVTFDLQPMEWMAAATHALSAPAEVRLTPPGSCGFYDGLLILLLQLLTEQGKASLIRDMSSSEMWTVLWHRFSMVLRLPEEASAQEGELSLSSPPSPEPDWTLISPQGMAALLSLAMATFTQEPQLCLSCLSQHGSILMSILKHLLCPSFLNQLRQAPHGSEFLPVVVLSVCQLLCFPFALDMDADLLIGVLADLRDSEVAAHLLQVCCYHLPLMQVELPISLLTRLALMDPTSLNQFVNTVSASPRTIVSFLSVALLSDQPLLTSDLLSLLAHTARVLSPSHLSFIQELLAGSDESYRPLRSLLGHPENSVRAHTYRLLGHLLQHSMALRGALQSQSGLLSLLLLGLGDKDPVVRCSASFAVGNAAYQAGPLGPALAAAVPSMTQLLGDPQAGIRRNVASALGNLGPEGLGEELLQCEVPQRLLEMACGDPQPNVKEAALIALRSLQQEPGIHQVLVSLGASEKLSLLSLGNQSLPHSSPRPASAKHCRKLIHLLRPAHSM

[6] = biological target: PLK2 (Homo sapiens, UniProt Q9NYY3)
[7] = biological target: YANK3 (Homo sapiens, UniProt Q86UX6)
[8] = biological target: ROCK2 (Homo sapiens, UniProt O75116)
ROCK2, sequence (O75116 whole entry): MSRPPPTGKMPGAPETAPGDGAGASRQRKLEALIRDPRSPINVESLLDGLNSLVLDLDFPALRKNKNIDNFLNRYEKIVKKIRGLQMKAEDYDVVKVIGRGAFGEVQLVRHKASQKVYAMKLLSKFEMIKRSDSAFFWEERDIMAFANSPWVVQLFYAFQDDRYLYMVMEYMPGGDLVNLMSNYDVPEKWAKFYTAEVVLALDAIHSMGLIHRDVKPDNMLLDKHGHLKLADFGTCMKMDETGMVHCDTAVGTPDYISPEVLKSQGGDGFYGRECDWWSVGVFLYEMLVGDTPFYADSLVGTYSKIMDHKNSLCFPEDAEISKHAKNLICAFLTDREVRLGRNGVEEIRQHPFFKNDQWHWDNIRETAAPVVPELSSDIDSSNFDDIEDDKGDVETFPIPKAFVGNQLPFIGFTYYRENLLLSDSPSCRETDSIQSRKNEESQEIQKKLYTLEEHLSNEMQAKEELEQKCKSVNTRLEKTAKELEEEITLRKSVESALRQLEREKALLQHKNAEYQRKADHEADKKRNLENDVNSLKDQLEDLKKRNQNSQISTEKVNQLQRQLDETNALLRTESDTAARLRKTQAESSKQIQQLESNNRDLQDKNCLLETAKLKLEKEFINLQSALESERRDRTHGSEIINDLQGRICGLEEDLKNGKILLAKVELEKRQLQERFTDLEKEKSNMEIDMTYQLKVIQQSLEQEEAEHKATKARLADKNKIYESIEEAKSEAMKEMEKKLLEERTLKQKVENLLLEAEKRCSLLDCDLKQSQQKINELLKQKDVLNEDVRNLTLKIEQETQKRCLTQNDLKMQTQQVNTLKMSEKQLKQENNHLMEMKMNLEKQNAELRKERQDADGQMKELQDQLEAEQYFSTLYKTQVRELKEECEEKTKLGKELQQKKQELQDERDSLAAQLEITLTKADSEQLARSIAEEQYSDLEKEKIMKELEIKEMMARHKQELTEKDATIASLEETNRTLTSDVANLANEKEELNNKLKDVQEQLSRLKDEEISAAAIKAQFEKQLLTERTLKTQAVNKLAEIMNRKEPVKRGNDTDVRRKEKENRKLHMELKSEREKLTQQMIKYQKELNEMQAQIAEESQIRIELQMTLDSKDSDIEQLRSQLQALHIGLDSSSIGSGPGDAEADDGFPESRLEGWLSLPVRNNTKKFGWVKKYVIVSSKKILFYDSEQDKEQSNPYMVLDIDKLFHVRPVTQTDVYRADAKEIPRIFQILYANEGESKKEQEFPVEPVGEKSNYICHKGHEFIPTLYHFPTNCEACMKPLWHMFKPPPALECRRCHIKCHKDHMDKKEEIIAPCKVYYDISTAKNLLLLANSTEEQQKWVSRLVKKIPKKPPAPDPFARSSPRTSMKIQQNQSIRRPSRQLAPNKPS

[9] = biological target: TSSK1B (Homo sapiens, UniProt Q9BXA7)
TSSK1B, sequence (Q9BXA7 whole entry): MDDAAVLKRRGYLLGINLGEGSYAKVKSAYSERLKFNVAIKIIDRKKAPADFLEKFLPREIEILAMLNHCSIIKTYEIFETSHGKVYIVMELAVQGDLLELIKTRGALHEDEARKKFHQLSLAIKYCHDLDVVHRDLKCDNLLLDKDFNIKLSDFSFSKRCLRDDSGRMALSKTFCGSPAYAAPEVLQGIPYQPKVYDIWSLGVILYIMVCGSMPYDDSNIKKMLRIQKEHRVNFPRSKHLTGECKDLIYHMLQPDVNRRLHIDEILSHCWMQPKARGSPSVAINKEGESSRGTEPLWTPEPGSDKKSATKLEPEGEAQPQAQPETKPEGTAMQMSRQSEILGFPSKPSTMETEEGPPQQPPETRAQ

[10] = biological target: PIK3C2B (Homo sapiens, UniProt O00750)
[11] = biological target: TGFBR2 (Homo sapiens, UniProt P37173)
TGFBR2, sequence (P37173 whole entry): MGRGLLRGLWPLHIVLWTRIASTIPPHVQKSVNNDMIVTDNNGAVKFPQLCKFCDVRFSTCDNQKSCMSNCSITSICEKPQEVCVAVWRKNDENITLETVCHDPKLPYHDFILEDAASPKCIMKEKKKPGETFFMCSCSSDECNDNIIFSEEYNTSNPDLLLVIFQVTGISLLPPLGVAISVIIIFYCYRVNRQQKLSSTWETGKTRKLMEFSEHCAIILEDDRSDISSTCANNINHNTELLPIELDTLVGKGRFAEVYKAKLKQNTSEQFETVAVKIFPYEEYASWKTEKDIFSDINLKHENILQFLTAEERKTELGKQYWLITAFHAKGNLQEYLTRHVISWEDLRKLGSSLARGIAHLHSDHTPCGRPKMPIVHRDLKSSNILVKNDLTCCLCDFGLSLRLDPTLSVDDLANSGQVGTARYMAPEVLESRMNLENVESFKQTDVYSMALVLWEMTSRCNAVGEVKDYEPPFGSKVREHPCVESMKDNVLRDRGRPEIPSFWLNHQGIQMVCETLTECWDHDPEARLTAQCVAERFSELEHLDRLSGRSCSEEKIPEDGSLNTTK

[12] = biological target: STK16 (Homo sapiens, UniProt O75716)
STK16, sequence (O75716 whole entry): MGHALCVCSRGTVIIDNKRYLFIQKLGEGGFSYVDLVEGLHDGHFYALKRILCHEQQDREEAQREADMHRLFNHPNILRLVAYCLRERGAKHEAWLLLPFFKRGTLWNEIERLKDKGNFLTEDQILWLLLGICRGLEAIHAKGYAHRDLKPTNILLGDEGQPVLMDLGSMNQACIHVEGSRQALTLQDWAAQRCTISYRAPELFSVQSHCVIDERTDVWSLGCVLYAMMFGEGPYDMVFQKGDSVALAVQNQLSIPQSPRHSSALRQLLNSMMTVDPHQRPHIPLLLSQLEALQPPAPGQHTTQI

[13] = biological target: TTK (Homo sapiens, UniProt P33981)
[14] = biological target: ZAP70 (Homo sapiens, UniProt P43403)
[15] = biological target: ABL1-phosphorylated (Homo sapiens, UniProt P00519)
[16] = biological target: JAK1(JH1domain-catalytic) (Homo sapiens, UniProt P23458)
[17] = biological target: ABL1(H396P)-phosphorylated (Homo sapiens, UniProt P00519, H396P)
[18] = biological target: JAK1(JH2domain-pseudokinase) (Homo sapiens, UniProt P23458)
[19] = biological target: ABL1(T315I)-phosphorylated (Homo sapiens, UniProt P00519, T315I)
[20] = biological target: ABL1(F317I)-phosphorylated (Homo sapiens, UniProt P00519, F317I)
[21] = biological target: ABL1(M351T)-phosphorylated (Homo sapiens, UniProt P00519, M351T)
[22] = biological target: MINK (Homo sapiens, UniProt Q8N4C8)
[23] = biological target: AMPK-alpha1 (Homo sapiens, UniProt Q13131)
[24] = biological target: MYLK2 (Homo sapiens, UniProt Q9H1R3)
[25] = biological target: AXL (Homo sapiens, UniProt P30530)
AXL, sequence (P30530 whole entry): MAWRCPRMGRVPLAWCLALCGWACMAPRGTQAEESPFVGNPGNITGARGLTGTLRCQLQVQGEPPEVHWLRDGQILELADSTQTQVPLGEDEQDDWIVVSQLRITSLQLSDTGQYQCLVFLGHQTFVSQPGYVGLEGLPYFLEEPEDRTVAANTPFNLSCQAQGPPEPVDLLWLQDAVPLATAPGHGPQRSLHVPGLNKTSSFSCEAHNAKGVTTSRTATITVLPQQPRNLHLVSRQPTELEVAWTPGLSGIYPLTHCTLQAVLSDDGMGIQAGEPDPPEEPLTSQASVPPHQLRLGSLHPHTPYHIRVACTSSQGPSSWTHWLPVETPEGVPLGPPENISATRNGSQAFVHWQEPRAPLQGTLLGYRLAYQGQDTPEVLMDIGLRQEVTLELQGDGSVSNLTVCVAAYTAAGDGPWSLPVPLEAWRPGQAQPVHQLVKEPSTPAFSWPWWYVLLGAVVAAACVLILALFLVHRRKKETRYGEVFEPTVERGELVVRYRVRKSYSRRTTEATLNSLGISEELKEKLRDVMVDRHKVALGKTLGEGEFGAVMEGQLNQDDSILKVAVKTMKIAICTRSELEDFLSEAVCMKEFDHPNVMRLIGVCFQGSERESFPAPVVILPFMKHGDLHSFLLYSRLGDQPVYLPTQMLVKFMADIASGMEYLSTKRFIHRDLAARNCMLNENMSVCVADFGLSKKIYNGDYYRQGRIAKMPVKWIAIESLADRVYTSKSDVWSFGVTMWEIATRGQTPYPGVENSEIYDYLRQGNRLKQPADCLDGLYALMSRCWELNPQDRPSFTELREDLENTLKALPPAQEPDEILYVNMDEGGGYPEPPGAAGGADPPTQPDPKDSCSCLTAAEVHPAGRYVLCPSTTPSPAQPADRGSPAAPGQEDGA

[26] = biological target: ABL1(Q252H)-nonphosphorylated (Homo sapiens, UniProt P00519, Q252H)
[27] = biological target: ABL1(F317L)-phosphorylated (Homo sapiens, UniProt P00519, F317L)
[28] = biological target: ABL1(F317L)-nonphosphorylated (Homo sapiens, UniProt P00519, F317L)
[29] = read-out: CPT-1-70-1 (1uM) % control
[30] = read-out: CPT-1-70-1 (1μM) % control
[31] = read-out: HYJ-2-002-1 (1uM) % control
[32] = read-out: HYJ-2-002-1 (1μM) % control

Structure (SMILES): CN1CCN(c2ccc(Nc3nc(Oc4ccc(NC(=O)CCl)cc4)c4cc[nH]c4n3)cc2)CC1 [CPT1-70-1]
- remaining activity at 1 µM [1, 29]: 100%
- remaining activity at 1 µM [2, 29]: 25%
- remaining activity at 1 µM [3, 29]: 1.2%
- remaining activity at 1 µM [4, 30]: 54%
- remaining activity at 1 µM [5, 30]: 78%
- remaining activity at 1 µM [6, 30]: 78%
- remaining activity at 1 µM [7, 30]: 100%
- remaining activity at 1 µM [8, 30]: 26%
- remaining activity at 1 µM [9, 30]: 25%
- remaining activity at 1 µM [10, 30]: 100%
- remaining activity at 1 µM [11, 30]: 100%
- remaining activity at 1 µM [12, 30]: 0.75%
- remaining activity at 1 µM [13, 30]: 4.8%
- remaining activity at 1 µM [14, 30]: 0.2%
- remaining activity at 1 µM [15, 29]: 51%
- remaining activity at 1 µM [16, 29]: 77%
- remaining activity at 1 µM [17, 29]: 100%
- remaining activity at 1 µM [18, 29]: 0.75%
- remaining activity at 1 µM [19, 29]: 19%
- remaining activity at 1 µM [20, 29]: 100%
- remaining activity at 1 µM [21, 29]: 86%
- remaining activity at 1 µM [22, 29]: 41%
- remaining activity at 1 µM [23, 29]: 32%
- remaining activity at 1 µM [24, 29]: 86%
- remaining activity at 1 µM [25, 29]: 4.8%
- remaining activity at 1 µM [26, 29]: 52%
- remaining activity at 1 µM [27, 29]: 99%
- remaining activity at 1 µM [28, 29]: 100%

Structure (SMILES): CCN1CCN(Cc2ccc(NC(=O)c3ccc(C)c(CCc4cnc5[nH]ccc5c4OC)c3)cc2C(F)(F)F)CC1 [HYJ-2-002-1]
- remaining activity at 1 µM [1, 31]: 1%
- remaining activity at 1 µM [2, 31]: 0.05%
- remaining activity at 1 µM [3, 31]: 57%
- remaining activity at 1 µM [4, 32]: 67%
- remaining activity at 1 µM [5, 32]: 2.2%
- remaining activity at 1 µM [6, 32]: 100%
- remaining activity at 1 µM [7, 32]: 100%
- remaining activity at 1 µM [8, 32]: 94%
- remaining activity at 1 µM [9, 32]: 100%
- remaining activity at 1 µM [10, 32]: 100%
- remaining activity at 1 µM [11, 32]: 41%
- remaining activity at 1 µM [12, 32]: 80%
- remaining activity at 1 µM [13, 32]: 64%
- remaining activity at 1 µM [14, 32]: 69%
- remaining activity at 1 µM [15, 31]: 0.1%
- remaining activity at 1 µM [16, 31]: 41%
- remaining activity at 1 µM [17, 31]: 0.1%
- remaining activity at 1 µM [18, 31]: 93%
- remaining activity at 1 µM [19, 31]: 0.75%
- remaining activity at 1 µM [20, 31]: 34%
- remaining activity at 1 µM [21, 31]: 0.85%
- remaining activity at 1 µM [22, 31]: 33%
- remaining activity at 1 µM [23, 31]: 87%
- remaining activity at 1 µM [24, 31]: 0.85%
- remaining activity at 1 µM [25, 31]: 21%
- remaining activity at 1 µM [26, 31]: 0.05%
- remaining activity at 1 µM [27, 31]: 2%
- remaining activity at 1 µM [28, 31]: 0%
